The values that follow come from the supplement of paper PMC11208160.

The nature of the data set: recombinant barcode read abundance after kanamycin selection (control-corrected) (log10(CPM+1)); higher = more efficient recombination; sequences stand for … in AGTGCAGAGAAAATCGGCCAGTTTTCTCTGCCTGCAGTCCGCATGCCGT…AGATTTATGCAGCGGACTGCCTTTCTCCCAAAGTGATAAACCGGACAGTATCATGGACCGGTTTTCCCGGTAATCCGTATTTGCAAGGTTGGTTTCACT; site = the 11-nt target. The method, boiled down:
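Pooled E. coli screen pairing targets with IS621 bridge RNA target-binding loops. Each oligo (promoter, target, barcode, J23119-driven first 104 bridge RNA bases) was Gibson-cloned into a vector with the remaining 73 bp and T7-inducible recombinase, then co-electroporated with a donor plasmid. Two replicates each were plated on chloramphenicol/ampicillin LB agar (control) or chloramphenicol/ampicillin/kanamycin with 0.1 mM IPTG. Recombination efficiency is recombinant-junction barcode counts as CPM, averaged, control-corrected, reported as log10(CPM+1).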
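Further: IS621 recombinase and bridge RNA in Escherichia coli cells.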

As to “TCTTGTCCTTGGGTTCTAACCTGTTGCGA (site TCTTGTCCTTC)”, the “recombinant barcode read abundance (log10)” value was determined as 0.253.

In the case of “TCTTGTCCTTGGGTTCTAACCTGTTGCGC (site TCTTGTCCTAC)”, the “recombinant barcode read abundance (log10)” value was determined as 0.0303.

For “TCTTGTCCTTGGGTTCTAACCTGTTGCGC (site TCTTGTCCTCC)”, the “recombinant barcode read abundance (log10)” value was found to be 0.093.

Take “TCTTGTCCTTGGGTTCTAACCTGTTGCGC (site TCTTGTCCTGC)”: the “recombinant barcode read abundance (log10)” value is 0.385.

Take “TCTTGTCCTTGGGTTCTAACCTGTTGCGC (site TCTTGTCCTTC)”: the “recombinant barcode read abundance (log10)” value is 0.0581.

Regarding “TCTTGTCCTTGGGTTCTAACCTGTTGCGT (site TCTTGTCCTAC)”, the “recombinant barcode read abundance (log10)” value turned out to be 0.682.

“TCTTGTCCTTGGGTTCTAACCTGTTGCGT (site TCTTGTCCTCC)”: the “recombinant barcode read abundance (log10)” value was determined as 0.0386.

Take “TCTTGTCCTTGGGTTCTAACCTGTTGCGT (site TCTTGTCCTGC)”: the “recombinant barcode read abundance (log10)” value was determined as 0.172.

With “TCTTGTCCTTGGGTTCTAACCTGTTGCGT (site TCTTGTCCTTC)”, the “recombinant barcode read abundance (log10)” value came to 0.0168.

For “TGAAACGCTTGGGTTCTAACCTGTTGCTT (site TGAAACGCTAA)”, the “recombinant barcode read abundance (log10)” value was found to be 1.2.

For “TGAAACGCTTGGGTTCTAACCTGTTGCTT (site TGAAGCCCTAA)”, the “recombinant barcode read abundance (log10)” value is 0.0163.

For the sequence “TGAAAGCCTTGGGTTCTAACCTGTTGCTT (site TGAAAGCCTAA)”, the “recombinant barcode read abundance (log10)” value amounted to 0.215.

For “TGAAAGCCTTGGGTTCTAACCTGTTGCTT (site TGGAAGTCTAA)”, the “recombinant barcode read abundance (log10)” value was 0.0888.

On to “TGAAGCCCTTGGGTTCTAACCTGTTGCTT (site TGAAACGCTAA)”, for which the “recombinant barcode read abundance (log10)” value was found to be 0.179.

Take “TGAAGCCCTTGGGTTCTAACCTGTTGCTT (site TGAAGCCCTAA)”: the “recombinant barcode read abundance (log10)” value is 0.321.

For “TGAAGTACTTGGGTTCTAACCTGTTGCCT (site TGAAATACTAG)”, the “recombinant barcode read abundance (log10)” value was determined as 0.35.

As for “TGAAGTACTTGGGTTCTAACCTGTTGCCT (site TGAACTACTAG)”, the “recombinant barcode read abundance (log10)” value is 0.169.

In the case of “TGAAGTACTTGGGTTCTAACCTGTTGCCT (site TGAAGTACTAG)”, the “recombinant barcode read abundance (log10)” value turned out to be 0.257.

In the case of “TGAAGTACTTGGGTTCTAACCTGTTGCCT (site TGAATTACTAG)”, the “recombinant barcode read abundance (log10)” value came to 0.

Regarding “TGAATGACTTGGGTTCTAACCTGTTGCCT (site TGAATGACTAG)”, the “recombinant barcode read abundance (log10)” value was found to be 0.544.

On to “TGAATGACTTGGGTTCTAACCTGTTGCCT (site TGGATGCCTAG)”, for which the “recombinant barcode read abundance (log10)” value worked out at 0.0355.

“TGAATGTCTTGGGTTCTAACCTGTTGCCT (site TGAAAGTCTAG)”: the “recombinant barcode read abundance (log10)” value turned out to be 0.0491.

Consider “TGAATGTCTTGGGTTCTAACCTGTTGCCT (site TGAACGTCTAG)”, for which the “recombinant barcode read abundance (log10)” value was determined as 0.0549.

Regarding “TGAATGTCTTGGGTTCTAACCTGTTGCCT (site TGAAGGTCTAG)”, the “recombinant barcode read abundance (log10)” value was 0.0166.

In the case of “TGAATGTCTTGGGTTCTAACCTGTTGCCT (site TGAATGTCTAG)”, the “recombinant barcode read abundance (log10)” value is 1.23.

For the sequence “TGACACACTTGGGTTCTAACCTGTTGCTG (site TGACACACTCA)”, the “recombinant barcode read abundance (log10)” value was found to be 2.22.

In the case of “TGACACACTTGGGTTCTAACCTGTTGCTG (site TGAGACACTCA)”, the “recombinant barcode read abundance (log10)” value turned out to be 0.127.

Turning to “TGACAGTCTTGGGTTCTAACCTGTTGCAG (site CACTTAACTTG)”, the “recombinant barcode read abundance (log10)” value stood at 0.0862.

Consider “TGACAGTCTTGGGTTCTAACCTGTTGCAG (site TGACAGTCTCT)”, for which the “recombinant barcode read abundance (log10)” value stood at 1.42.

Turning to “TGACATGCTTGGGTTCTAACCTGTTGCCT (site TGAAATGCTAG)”, the “recombinant barcode read abundance (log10)” value is 0.108.

Regarding “TGACATGCTTGGGTTCTAACCTGTTGCCT (site TGACATGCTAG)”, the “recombinant barcode read abundance (log10)” value was 1.37.

For “TGACATGCTTGGGTTCTAACCTGTTGCCT (site TGAGATGCTAG)”, the “recombinant barcode read abundance (log10)” value came to 0.0442.

As to “TGACATGCTTGGGTTCTAACCTGTTGCCT (site TGATATGCTAG)”, the “recombinant barcode read abundance (log10)” value came out at 0.172.

Consider “TGACCCTCTTGGGTTCTAACCTGTTGCCT (site AGACCCTCTAG)”, for which the “recombinant barcode read abundance (log10)” value is 0.703.

Consider “TGACCCTCTTGGGTTCTAACCTGTTGCCT (site CGACCCTCTAG)”, for which the “recombinant barcode read abundance (log10)” value was found to be 0.465.

In the case of “TGACCCTCTTGGGTTCTAACCTGTTGCCT (site GGACCCTCTAG)”, the “recombinant barcode read abundance (log10)” value worked out at 0.0227.

Consider “TGACCCTCTTGGGTTCTAACCTGTTGCCT (site TGACCCTCTAG)”, for which the “recombinant barcode read abundance (log10)” value came to 2.39.

On to “TGACGTCCTTGGGTTCTAACCTGTTGCAT (site TGACGTCCTAA)”, for which the “recombinant barcode read abundance (log10)” value is 0.0504.

With “TGACGTCCTTGGGTTCTAACCTGTTGCAT (site TGACGTCCTAC)”, the “recombinant barcode read abundance (log10)” value was determined as 0.0943.

Take “TGACGTCCTTGGGTTCTAACCTGTTGCAT (site TGACGTCCTAG)”: the “recombinant barcode read abundance (log10)” value is 0.0926.

Regarding “TGACGTCCTTGGGTTCTAACCTGTTGCAT (site TGACGTCCTAT)”, the “recombinant barcode read abundance (log10)” value was found to be 0.695.

Turning to “TGACGTCCTTGGGTTCTAACCTGTTGCTT (site TGACGTCCTAA)”, the “recombinant barcode read abundance (log10)” value amounted to 0.293.

As to “TGACGTCCTTGGGTTCTAACCTGTTGCTT (site TGACGTCCTAC)”, the “recombinant barcode read abundance (log10)” value turned out to be 0.033.

As for “TGACGTCCTTGGGTTCTAACCTGTTGCTT (site TGACGTCCTAG)”, the “recombinant barcode read abundance (log10)” value is 0.122.

Regarding “TGACGTCCTTGGGTTCTAACCTGTTGCTT (site TGACGTCCTAT)”, the “recombinant barcode read abundance (log10)” value stood at 0.251.

With “TGAGATGCTTGGGTTCTAACCTGTTGCCT (site TGAAATGCTAG)”, the “recombinant barcode read abundance (log10)” value came to 0.199.

In the case of “TGAGATGCTTGGGTTCTAACCTGTTGCCT (site TGACATGCTAG)”, the “recombinant barcode read abundance (log10)” value was 0.026.

In the case of “TGAGATGCTTGGGTTCTAACCTGTTGCCT (site TGAGATGCTAG)”, the “recombinant barcode read abundance (log10)” value amounted to 1.72.

On to “TGAGATGCTTGGGTTCTAACCTGTTGCCT (site TGATATGCTAG)”, for which the “recombinant barcode read abundance (log10)” value stood at 0.124.

Regarding “TGAGATTCTTGGGTTCTAACCTGTTGCAT (site TGAGATTCTAT)”, the “recombinant barcode read abundance (log10)” value worked out at 1.55.

As to “TGAGATTCTTGGGTTCTAACCTGTTGCAT (site TGTGATCCTAT)”, the “recombinant barcode read abundance (log10)” value worked out at 0.0159.

Consider “TGAGCGGCTTGGGTTCTAACCTGTTGCCT (site TGAGAGGCTAG)”, for which the “recombinant barcode read abundance (log10)” value came to 0.143.

As to “TGAGCGGCTTGGGTTCTAACCTGTTGCCT (site TGAGCGGCTAG)”, the “recombinant barcode read abundance (log10)” value came to 0.438.

Consider “TGAGCGGCTTGGGTTCTAACCTGTTGCCT (site TGAGGGGCTAG)”, for which the “recombinant barcode read abundance (log10)” value was determined as 0.00469.

Take “TGAGCGGCTTGGGTTCTAACCTGTTGCCT (site TGAGTGGCTAG)”: the “recombinant barcode read abundance (log10)” value stood at 0.0667.

As to “TGAGTACCTTGGGTTCTAACCTGTTGCTT (site TGAGTACCTAA)”, the “recombinant barcode read abundance (log10)” value was 1.39.

Turning to “TGAGTACCTTGGGTTCTAACCTGTTGCTT (site TGAGTCCCTAA)”, the “recombinant barcode read abundance (log10)” value was 0.0336.

For “TGAGTACCTTGGGTTCTAACCTGTTGCTT (site TGAGTGCCTAA)”, the “recombinant barcode read abundance (log10)” value turned out to be 0.856.

For “TGAGTACCTTGGGTTCTAACCTGTTGCTT (site TGAGTTCCTAA)”, the “recombinant barcode read abundance (log10)” value turned out to be 0.144.

Take “TGAGTCCCTTGGGTTCTAACCTGTTGCAG (site AAGTGGTCTTA)”: the “recombinant barcode read abundance (log10)” value is 0.149.

Regarding “TGAGTCCCTTGGGTTCTAACCTGTTGCAG (site TGAGTCCCTCT)”, the “recombinant barcode read abundance (log10)” value came out at 2.79.

As for “TGAGTCCCTTGGGTTCTAACCTGTTGCTA (site TGAGTCCCTTA)”, the “recombinant barcode read abundance (log10)” value was 2.27.

On to “TGAGTCCCTTGGGTTCTAACCTGTTGCTA (site TGGGTCCCTAA)”, for which the “recombinant barcode read abundance (log10)” value stood at 0.0131.

Take “TGAGTGGCTTGGGTTCTAACCTGTTGCCT (site TGAGAGGCTAG)”: the “recombinant barcode read abundance (log10)” value was determined as 0.129.

On to “TGAGTGGCTTGGGTTCTAACCTGTTGCCT (site TGAGCGGCTAG)”, for which the “recombinant barcode read abundance (log10)” value amounted to 0.108.

Consider “TGAGTGGCTTGGGTTCTAACCTGTTGCCT (site TGAGGGGCTAG)”, for which the “recombinant barcode read abundance (log10)” value is 0.00884.

As to “TGAGTGGCTTGGGTTCTAACCTGTTGCCT (site TGAGTGGCTAG)”, the “recombinant barcode read abundance (log10)” value is 0.749.

Consider “TGATAGCCTTGGGTTCTAACCTGTTGCCT (site AGATAGCCTAG)”, for which the “recombinant barcode read abundance (log10)” value is 0.063.

Take “TGATAGCCTTGGGTTCTAACCTGTTGCCT (site CGATAGCCTAG)”: the “recombinant barcode read abundance (log10)” value was determined as 0.0141.

Turning to “TGATAGCCTTGGGTTCTAACCTGTTGCCT (site GGATAGCCTAG)”, the “recombinant barcode read abundance (log10)” value worked out at 0.159.

Regarding “TGATAGCCTTGGGTTCTAACCTGTTGCCT (site TGATAGCCTAG)”, the “recombinant barcode read abundance (log10)” value is 0.901.

“TGATATTCTTGGGTTCTAACCTGTTGCCT (site ACCAGCCCTCA)”: the “recombinant barcode read abundance (log10)” value was found to be 0.448.

On to “TGATATTCTTGGGTTCTAACCTGTTGCCT (site TGATATTCTAG)”, for which the “recombinant barcode read abundance (log10)” value was 0.245.

Consider “TGATCTCCTTGGGTTCTAACCTGTTGCAT (site TGATCTCCTAA)”, for which the “recombinant barcode read abundance (log10)” value was 0.186.

For “TGATCTCCTTGGGTTCTAACCTGTTGCAT (site TGATCTCCTAT)”, the “recombinant barcode read abundance (log10)” value was 0.28.

“TGATCTCCTTGGGTTCTAACCTGTTGCTT (site TGATCTCCTAA)”: the “recombinant barcode read abundance (log10)” value was 0.0107.

Consider “TGATCTCCTTGGGTTCTAACCTGTTGCTT (site TGATCTCCTAT)”, for which the “recombinant barcode read abundance (log10)” value came to 0.0466.
